Test results taken from patent US11771694B2, “Arylamide compounds for treatment and prevention of viral infections” (priority 2020, dated 2023).
Values after ≈ are worked out from the molar mass of the structure shown. Where two headings read alike, the source gives them in different places.

Assays:
[1] = tested on: dextran sulfate sodium (DSS) induced colitis; test: Mouse DSS colitis model; type: in vivo, mice; settings: mouse, in vivo
Providencia stuartii = test: Broth microdilution MIC; type: cell-based
Klebsiella oxtoca = test: Broth microdilution MIC; type: cell-based
Proteus vulgaris = test: Broth microdilution MIC; type: cell-based
Staph. epidermidis = test: Broth microdilution MIC; type: cell-based; settings: Staphylococcus epidermidis
[2] = tested on: stationary phase cultures of MSSA and MRSA; test: Time-kill against stationary phase cultures of MSSA and MRSA; type: cell-based, Staph. aureus; settings: up to 10× the MIC; data not shown
Staph. spp. coagulase- = test: Broth microdilution MIC; type: cell-based
[3] = tested on: Stenotrophomonas maltophilia; test: Broth microdilution MIC; type: cell-based
Staph. aureus (MRSA) = test: Broth microdilution MIC; type: cell-based; settings: Staphylococcus aureus
Morganella morganii = test: Broth microdilution MIC; type: cell-based
Staph. saprophyticus = test: Broth microdilution MIC; type: cell-based; settings: Staphylococcus saprophyticus
Citrobacter fruendi = test: Broth microdilution MIC; type: cell-based
Strept. pyogenes = test: Broth microdilution MIC; type: cell-based; settings: Streptococcus pyogenes
Klebsiella pneumoniae = test: Broth microdilution MIC; type: cell-based
Entero. faecalis = test: Broth microdilution MIC; type: cell-based; settings: Enterococcus faecalis
Citrobacter koseri = test: Broth microdilution MIC; type: cell-based
Enterobacter cloacae = test: Broth microdilution MIC; type: cell-based
Serratia marcescens = test: Broth microdilution MIC; type: cell-based
Entero. faecium (VRE) = test: Broth microdilution MIC; type: cell-based; settings: Enterococcus faecium
Proteus mirabilis = test: Broth microdilution MIC; type: cell-based
Pseud. aeruginosa = test: Broth microdilution MIC; type: cell-based; settings: Pseudomonas aeruginosa
Escherichia coli = test: Broth microdilution MIC; type: cell-based
Acinetobacter spp. = test: Broth microdilution MIC; type: cell-based; settings: 2-3 isolates/organism
Strept. agalactiae = test: Broth microdilution MIC; type: cell-based; settings: Streptococcus agalactiae
Strept. viridians = test: Broth microdilution MIC; type: cell-based
Strept. pneumoniae = test: Broth microdilution MIC; type: cell-based; settings: Streptococcus pneumoniae
Haemophilus influenzae = test: Broth microdilution MIC; type: cell-based
SARS-CoV-2 = type: cell-based; settings: Calu-3; MOI 0.05; 24 hpi
[4] = 2-3 isolates/organism, read-out: MIC

Compound: Nc1ccc(O)c(C(=O)O)c1 [5-ASA, reference compound]
- mean reduction in IL-1β in distal colon tissue [1]: 33%
- mean reduction in IL-6 in distal colon tissue [1]: 86%

Compound: CC(C)(O/N=C(\C(=O)N[C@@H]1C(=O)N2C(C(=O)[O-])=C(C[n+]3ccccc3)CS[C@H]12)c1csc(N)n1)C(=O)O [Ceftazidime]
- MIC (Providencia stuartii): 0.12 to 64 µg/mL (≈ 0.22 to 117 µM)
- MIC (Klebsiella oxtoca; Klebsiella): 0.06 to 0.12 µg/mL (≈ 0.11 to 0.22 µM)
- MIC (Proteus vulgaris): 0.12 µg/mL (≈ 0.22 µM)
- MIC (Staph. epidermidis): 16 to 32 µg/mL (≈ 29.3 to 58.5 µM)

Compound: CCCCCCCCCC(=O)N[C@@H](Cc1c[nH]c2ccccc12)C(=O)N[C@H](CC(N)=O)C(=O)N[C@@H](CC(=O)O)C(=O)N[C@@H]1C(=O)NCC(=O)N[C@@H](CCCN)C(=O)N[C@@H](CC(=O)O)C(=O)N[C@H](C)C(=O)N[C@@H](CC(=O)O)C(=O)NCC(=O)N[C@H](CO)C(=O)N[C@@H]([C@H](C)CC(=O)O)C(=O)N[C@@H](CC(=O)c2ccccc2N)C(=O)O[C@@H]1C [Daptomycin, reference compound]
- antimicrobial activity against stationary phase cultures [2]: little antimicrobial activity

Compound: CC(=O)NC[C@H]1CN(c2ccc(N3CCOCC3)c(F)c2)C(=O)O1 [Linezolid]
- MIC (Providencia stuartii; [4]): > 16 µg/mL
- MIC (Staph. spp. coagulase-; Staph. spp. coagulase-, 2-3 isolates/organism, read-out: MIC): 1 µg/mL (≈ 2.96 µM)
- MIC [3, 4]: > 16 µg/mL
- MIC (Staph. aureus (MRSA); Staph. aureus (MRSA), 2-3 isolates/organism, read-out: MIC): 1 to 2 µg/mL (≈ 2.96 to 5.93 µM)
- MIC (Morganella morganii; [4]): > 16 µg/mL
- MIC (Klebsiella oxtoca; Klebsiella oxtoca, 2-3 isolates/organism, read-out: MIC): > 16 µg/mL
- MIC (Staph. saprophyticus; Staph. saprophyticus, 2-3 isolates/organism, read-out: MIC): 1 to 2 µg/mL (≈ 2.96 to 5.93 µM)
- MIC (Citrobacter fruendi; Citrobacter fruendi, 2-3 isolates/organism, read-out: MIC): > 16 µg/mL
- MIC (Strept. pyogenes; Strept. pyogenes, 2-3 isolates/organism, read-out: MIC): 1 µg/mL (≈ 2.96 µM)
- MIC (Klebsiella pneumoniae; [4]): > 16 µg/mL
- MIC (Entero. faecalis; Entero. faecalis, 2-3 isolates/organism, read-out: MIC): 1 to 2 µg/mL (≈ 2.96 to 5.93 µM)
- MIC (Citrobacter koseri; [4]): > 16 µg/mL
- MIC (Enterobacter cloacae; [4]): > 16 µg/mL
- MIC (Proteus vulgaris; [4]): > 16 µg/mL
- MIC (Staph. epidermidis; Staph. epidermidis, 2-3 isolates/organism, read-out: MIC): 0.5 to 1 µg/mL (≈ 1.48 to 2.96 µM)
- MIC (Serratia marcescens; [4]): > 16 µg/mL
- MIC (Entero. faecium (VRE); Entero. faecium (VRE), 2-3 isolates/organism, read-out: MIC): 1 to 2 µg/mL (≈ 2.96 to 5.93 µM)
- MIC (Proteus mirabilis; [4]): > 16 µg/mL
- MIC (Pseud. aeruginosa; Pseud. aeruginosa, 2-3 isolates/organism, read-out: MIC): > 16 µg/mL
- MIC (Escherichia coli; [4]): > 16 µg/mL
- MIC (Acinetobacter spp.): > 16 µg/mL
- MIC (Strept. agalactiae; Strept. agalactiae, 2-3 isolates/organism, read-out: MIC): 1 µg/mL (≈ 2.96 µM)
- MIC (Strept. viridians; Strept. viridians, 2-3 isolates/organism, read-out: MIC): 1 µg/mL (≈ 2.96 µM)
- MIC (Strept. pneumoniae; Strept. pneumoniae, 2-3 isolates/organism, read-out: MIC): 1 µg/mL (≈ 2.96 µM)

Compound: CN[C@H](CC(C)C)C(=O)N[C@H]1C(=O)N[C@@H](CC(N)=O)C(=O)N[C@H]2C(=O)N[C@H]3C(=O)N[C@H](C(=O)N[C@H](C(=O)O)c4cc(O)cc(O)c4-c4cc3ccc4O)[C@H](O)c3ccc(c(Cl)c3)Oc3cc2cc(c3O[C@@H]2O[C@H](CO)[C@@H](O)[C@H](O)[C@H]2O[C@H]2C[C@](C)(N)[C@H](O)[C@H](C)O2)Oc2ccc(cc2Cl)[C@H]1O [Vancomycin]
- MIC (Providencia stuartii): > 128 µg/mL
- MIC (Staph. spp. coagulase-): 1 to 2 µg/mL (≈ 0.69 to 1.38 µM)
- MIC [3]: 32 to 128 µg/mL (≈ 22.1 to 88.3 µM)
- MIC (Staph. aureus (MRSA); MRSA): 0.5 to 1 µg/mL (≈ 0.345 to 0.69 µM)
- MIC (Morganella morganii): > 128 µg/mL
- MIC (Klebsiella oxtoca; Klebsiella): > 128 µg/mL
- MIC (Staph. saprophyticus): 1 to 2 µg/mL (≈ 0.69 to 1.38 µM)
- MIC (Citrobacter fruendi; Citrobacter): > 128 µg/mL
- MIC (Haemophilus influenzae): 128 µg/mL (≈ 88.3 µM)
- MIC (Strept. pyogenes): 0.5 µg/mL (≈ 0.345 µM)
- MIC (Klebsiella pneumoniae): > 128 µg/mL
- MIC (Entero. faecalis): 1 µg/mL (≈ 0.69 µM)
- MIC (Citrobacter koseri): > 128 µg/mL
- MIC (Enterobacter cloacae): > 128 µg/mL
- MIC (Proteus vulgaris): > 128 µg/mL
- MIC (Staph. epidermidis): 2 µg/mL (≈ 1.38 µM)
- MIC (Serratia marcescens): > 128 µg/mL
- MIC (Entero. faecium (VRE); VRE): > 128 µg/mL
- MIC (Proteus mirabilis): > 128 µg/mL
- MIC (Pseud. aeruginosa): > 128 µg/mL
- MIC (Escherichia coli): > 128 µg/mL
- MIC (Strept. agalactiae): 0.5 µg/mL (≈ 0.345 µM)
- MIC (Strept. viridians): 0.5 to 1 µg/mL (≈ 0.345 to 0.69 µM)
- MIC (Strept. pneumoniae): 0.5 µg/mL (≈ 0.345 µM)

Compound: NC(=O)c1nc(F)c[nH]c1=O [favipiravir, reference compound]
- inhibition of infectious titer, each drug alone (SARS-CoV-2): ≤ 80%
